Reference: patent publication US20060134124A1, “Immunosuppression” (ML Laboratories PLC, priority 1998, published 2006)

What was measured:
porcine B7-2 peptides = experiment: Peptide ELISA of sera from mice immunised with OVA-B7-2 chimeric peptides; type: in vivo, C57BL-6 mice; conditions: for binding of antisera to B7 peptide versus ova control by peptide ELISA: sera of mice that received a pool of all nine B7-2 peptides, FIG. 14a or 14b; for level of peptide-specific IgG in the sera of immunised mice: immunisation with peptide 4 or 6, FIGS. 15a and 15b
From the text: C57BL-6 mice are immunised with whole ovalbumin in CFA, followed by either control peptide (OVA peptide) or CS peptides (OVA-B7-2 constructs) for three weekly immunisations. Blood is collected following sacrifice and sera prepared using a standard technique. Presence of specific mouse anti-porcine B7-2 IgG and/or IgM Ab is detected by one of two strategies.
(§1) Peptide ELISAs are used to screen for the presence of anti-peptide antibody in the sera. Peptides are coated to plates by virtue of aldehyde linkages to allow free access of Ab to the peptide (78), Plates are coated with individual peptides or the ova control peptide to enable the identification of specific peptides of interest. To detect reactivity of sera with the native B7-2 molecule expressed on the surface of PoB7-2 transfected P815 cells, flow cytometry is performed following surface staining. Having identified CS peptide of interest (peptide ELISA positive and recognising native B7-2) the sera is used to inhibit in vitro T cell proliferative responses. This determines whether the antibody is a blocking antibody.
(§2) Immunisations involved two groups of mice, one received a pool of all nine B7-2 peptides, and one receiving ova control peptide. The harvested sera were screened by peptide ELISA (FIG. 14a or 14b) which enabled the identification of peptides of interest. […] Peptide 4 and 6 were selected as candidate peptides and used in subsequent immunisation protocol. […] Similar protocols will be followed with peptide 2.

[1] = tested on: native porcine B7-2 molecule expressed on the surface of porcine B7-2 transfected P815 cells; experiment: Flow cytometry of immunised-mouse sera on poB7-2 transfected P815 cells; type: binding; conditions: for recognition (staining) of porcine B7-2 transfected P815 cells by sera: sera of mice immunised with single peptide, FIGS. 17a and 17b
From the text: (II) Transfected P815 cells are crucial reagents for the detection of porcine anti-B7-2 antibody in the sera of immunised mice which have undergone the chimeric peptide immunisation regimen. Flow cytometric analysis with control or poB7-2-transfected P815 cells, reflects the specificity of sera for B7-2.
as §1, §2

T cell proliferation = T cell proliferation response to whole ovalbumin or OVA 323-339 peptide after immunisation with whole ovalbumin; type: in vivo, C57BL-6 mice; conditions: following immunisation with whole ovalbumin; FIG. 13
From the text: FIG. 13 represents a comparison of T cell proliferation response to whole ovalbumen or the ovalbumen peptide Ova323-339;
The peptide sequences and amino acid positions for peptides 1-10 relate to the position of the B7-2 peptide sequence within porcine B7-2. The amino acid position for the ova sequence is only indicated for the Ova peptide. A 17 amino acid peptide from chicken egg albumin (ovalbumin) was selected as the T cell epitope, OVA323-339 (ISQAVHAAHAEINEAGR). This epitope was selected on the basis of published reports for the generation of a H-2^b restricted T cell response (76, 77). […] Peptides were generated on a peptide synthesiser (Genosys) and crude peptides were purified by HPLC to greater than 70% purity.

[2] = tested on: direct mouse anti porcine T cell responses; experiment: Inhibition of in vitro T cell proliferative responses by peptide sera; type: cell-based; conditions: FIG. 15b
Protocol: as §1

murine CD86 = biological target: T1, murine CD86 (Mus musculus, UniProt P42082); experiment: Inhibition of costimulation by murine CD86 by peptide sera; type: cell-based; conditions: FIG. 15b
T1 sequence (P42082 24-309): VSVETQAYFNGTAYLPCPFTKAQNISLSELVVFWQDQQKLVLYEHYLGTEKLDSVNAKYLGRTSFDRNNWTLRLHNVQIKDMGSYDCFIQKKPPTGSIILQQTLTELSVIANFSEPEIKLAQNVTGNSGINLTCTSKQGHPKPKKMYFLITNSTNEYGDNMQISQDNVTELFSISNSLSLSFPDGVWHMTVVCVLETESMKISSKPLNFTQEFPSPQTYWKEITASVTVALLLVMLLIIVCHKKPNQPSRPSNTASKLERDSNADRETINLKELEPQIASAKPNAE

Substance | binding of antisera to B7 peptide versus ova control by peptide ELISA (porcine B7-2 peptides) | recognition (staining) of porcine B7-2 transfected P815 cells by sera [1] | staining of untransfected control P815 cells by sera [1] | proliferative response of C57BL-6 mice (H-2b haplotype) (T cell proliferation) | level of peptide-specific IgG in the sera of immunised mice (porcine B7-2 peptides) | inhibition of direct mouse anti porcine T cell responses by sera [2] | inhibition of costimulation by murine CD86 by sera (murine CD86) | specificity of the sera for the peptide versus ova control (porcine B7-2 peptides; peptide ELISA, FIG. 16)
ISQAVHAAHAEINEAGRLPCHFTNSQ [Peptide 2] | preferential binding to B7 peptide than to ova control | – | – | – | – | – | – | –
ISQAVHAAHAEINEAGR [Ova Peptide, control peptide, reference compound] | – | do not stain | do not stain | mount a proliferative response | – | – | – | –
ovalbumin [chicken egg albumin used whole for priming immunisation] | – | – | – | mount a proliferative response | – | – | – | –
ISQAVHAAHAEINEAGRCSSTQGYPEPQR [Peptide 6] | preferential binding to B7 peptide than to ova control | specifically recognise the native porcine B7-2 molecule | do not stain | – | significant level of IgG | inhibition of direct mouse anti porcine T cell responses | no inhibition | –
ISQAVHAAHAEINEAGRGLVPIHQMS [Peptide 4] | preferential binding to B7 peptide than to ova control | specifically recognise the native porcine B7-2 molecule | do not stain | – | significant level of IgG | inhibition of direct mouse anti porcine T cell responses | no inhibition | specificity of the sera for peptide 4 and not to ova control
